Biological target: T1, recombinant autotaxin (Homo sapiens, UniProt Q13822)
T1 construct: made in house; host or cells: Hi5 insect cells (baculovirus)
Assay: Autotaxin test (enzyme test), Amplex Red fluorescence
Assay type: biochemical
Details: substrate LPC 75 μM, Amplex Red detection, read-out: IC50 (autotaxin inhibition, enzyme test)
In short: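 Recombinant human autotaxin from baculovirus/Hi5 (16 ng) was preincubated with compound 30 min at 22 °C. Reaction with 75 μM egg LPC ran 90 min at 37 °C. Released choline was coupled via alkaline phosphatase, choline oxidase and HRP to Amplex Red, read as resorufin fluorescence (ex485/em612) in kinetic mode.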

SMILES | IC50
Cc1ccc(NC(=O)Nc2[nH]c(Cc3ccc(C(=O)O)s3)nc2C(N)=O)cc1 [Compound A69, 5-[4-Carbamoyl-5-(3-p-tolylureido)-1H-imidazol 2-ylmethyl]thiophene-2-carboxylic acid] | > 10 µM
Cc1c(Cl)cccc1NC(=O)Nc1[nH]c(Cc2ccc(C(=O)O)o2)nc1C(N)=O [Compound A13, 5-{4-Carbamoyl-5-[3-(3-chloro-2-methylphenyl)-ureido]-1H-imidazol-2-ylmethyl}furan-2-carboxylic acid] | > 10 µM
CCc1cccc(C)c1NC(=O)Nc1[nH]c(Cc2ccc(C(=O)O)o2)nc1C(N)=O [Compound A32, 5-{4-Carbamoyl-5-[3-(2-ethyl-6-methylphenyl)-ureido]-1H-imidazol-2-ylmethyl}furan-2-carboxylic acid] | > 10 µM
NC(=O)c1nc(COc2ccc(CC(=O)O)cc2)[nH]c1NC(=O)Nc1ccc(Cl)cc1 [Compound A59, (4-{4-Carbamoyl-5-[3-(4-chlorophenyl)ureido]-1H-imidazol-2-ylmethoxy}phenyl)acetic acid] | > 10 µM

Source: patent publication US20100249132A1, “IMIDAZOLE DERIVATIVES” (MERCK PATENT GESELLSCHAFT MIT BESCHRANKTER HAFTUNG, priority 2007, published 2010)
